Tested on: rats
Test: Behavioural sensitization to amphetamine (motor hyperactivity measured by actimetry)
Conditions: amphetamine 0.5 mg/kg IP, ginkgolide A 5 mg/kg per day oral

## C[C@@H]1C(=O)O[C@H]2C[C@@]34[C@H]5C[C@@H](C(C)(C)C)[C@]36[C@@H](OC(=O)[C@@H]6O)O[C@@]4(C(=O)O5)[C@]21O [ginkgolide A]
  behavioural sensitization to amphetamine: reduced

Reference: patent US6936285B1, “Use of Ginkgo biloba extracts for preparing a medicine” (Societe de Conseils de Recherches d'Application …, priority 1997, dated 2005)
